Measured values taken from patent publication US5827655A (priority 1995, dated 1998).
pIC50, pKd: −log10 of the molar value.

How the values were obtained:
type n K+ channel (mice) = conditions: Table I, type n currents, mouse T cells; read-out: Blockers, half-blocking dose; cited from earlier work
[1] = test system: type n K+ channel (human); conditions: Table I, type n currents, human T cells; read-out: Blockers, half-blocking dose; cited from earlier work
MK3 K+ channels = molecular target: T1, MK3 K+ channels (Mus musculus, UniProt P16390); assay: cell-based
T1 construct: The MK3 coding region was inserted into the pSP64T cloning vector; expressed in transfected cells; host or cells: Xenopus oocytes injected with MK3 mRNA (in vitro transcript from pSP64T)
T1 sequence (P16390 whole entry): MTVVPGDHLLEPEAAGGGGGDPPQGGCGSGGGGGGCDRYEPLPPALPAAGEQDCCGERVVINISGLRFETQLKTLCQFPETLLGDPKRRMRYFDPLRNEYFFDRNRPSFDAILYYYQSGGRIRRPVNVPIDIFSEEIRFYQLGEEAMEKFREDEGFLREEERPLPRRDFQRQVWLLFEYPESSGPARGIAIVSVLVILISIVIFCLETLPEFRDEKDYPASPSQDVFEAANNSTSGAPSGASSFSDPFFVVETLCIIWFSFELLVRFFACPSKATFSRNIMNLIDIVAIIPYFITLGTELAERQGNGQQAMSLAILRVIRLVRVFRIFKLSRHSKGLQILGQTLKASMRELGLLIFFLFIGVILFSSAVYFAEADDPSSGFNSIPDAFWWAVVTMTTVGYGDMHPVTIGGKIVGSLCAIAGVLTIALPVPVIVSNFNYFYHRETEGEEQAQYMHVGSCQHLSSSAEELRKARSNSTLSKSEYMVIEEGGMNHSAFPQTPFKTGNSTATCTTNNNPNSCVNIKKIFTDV
Description: Electrophysiology. Experiments were carried out on Xenopus oocytes with two-electrode voltage-clamp and patch-clamp techniques (17). All experiments were done at room temperature (22°-26° C.). […] The pipette solution was 3M KCl.
The patch-clamp amplifier (List L/M-EPC 7, Adams and List Associates, Ltd., Great Neck, N.Y.) was used in the voltage-clamp mode without series resistance compensation. Patch-clamp electrodes were pulled from Accu-fill 90 Micropets (Becton, Dickinson & Co., Parsippany, N.J.) in three stages, coated with Sylgard (Dow Corning Corp., Midland, Mich.) and fire-polished to resistances, measured in the bath, of 2-7M. In all patch-clamp experiments, the command input of the patch-clamp amplifier was controlled by a computer (PDP 11/73) via a digital-analog converter, and membrane currents were recorded at a band-width of 2 kHz. The holding potential was adjusted in all experiments to E=-80 mV. Correction for capacitative currents was achieved by analog subtraction. […] Due to this run-down the potency of all blockers was determined as the reduction of the mean K^+ current before and after drug treatment.
Xenopus oocytes express a high density of voltage-activated K^+ channels following injection of 70 nl of 0.01 /μg/μl MK3 mRNA. […] Outside-out patches of oocyte membrane (70 nl of 0.1 μg/μl MK3 mRNA injected) were used for measurement of gating kinetics, pharmacological sensitivity, and single channel properties.

For Nc1ccncc1 [4-AP, 4-aminopyridine], the pIC50 (type n K+ channel (mice)) is given as […] and the pIC50 [1] is given as 3.72.
CC[N+](CC)(CC)CC [TEA, tetraethylammonium] showed a pKd (MK3 K+ channels; FIG. 3C, outside-out patch, oocyte injected with MK3 mRNA, read-out: Kd, dose-response curve of drugs blocking MK3 K+ current) of 1.96 and a pIC50 (MK3 K+ channels; Table I, MK3 currents in oocytes, read-out: Blockers, half-blocking dose) of 1.96.
For Charybdotoxin [CTX], the “Block of MK3 channels in oocytes (in words)” value (MK3 K+ channels; CTX from both sources (C. Miller and M. Garcia)) was “blocked MK3 channels in oocytes”.
